The values that follow are results of earlier work, collected in patent US10481149B2.

The series has as its system elimination transporters. The note with it: sandwich-cultured rat hepatocytes; cited from earlier work.

As to `COc1ccc(Cl)cc1C(=O)NCCc1ccc(S(=O)(=O)NC(=O)NC2CCCCC2)cc1` [glibenclamide], the “interference with rosuvastatin elimination” value was 29.3%.
